{"source": "patent US20190053509A1", "about": "“NITROUS OXIDE MIXTURES AND METHODS OF USE” (Korvata Inc., priority 2015, published 2019)", "origin": "cited, not measured here", "key": {"[1]": {"settings": "101.3 kPa (1 atm); for Bunsen solubility coefficient in olive oil: olive oil at 22° C.; for Bunsen solubility coefficient in water: water at 0° C."}, "[2]": {"settings": "relative to nitrogen standardized to 1.0; from J Applied Physiology 1994; 76(1): 439-444"}}, "note": "Read-outs that look alike come from different tables or passages of the source."}
{"smiles": "[Ar]", "note": "[Ar, argon]", "values": [{"measurement": "Bunsen solubility coefficient in olive oil", "setting": "[1]", "value": 0.15, "unit": "L gas/L"}, {"measurement": "Bunsen solubility coefficient in water", "setting": "[1]", "value": 0.0421, "unit": "L gas/L"}, {"measurement": "RNP (Relative Narcotic Potency)", "setting": "[2]", "value": 2.3}]}
{"smiles": "[N-]=[N+]=O", "note": "[Example N2O, nitrous oxide]", "values": [{"measurement": "Bunsen solubility coefficient in olive oil", "setting": "[1]", "value": 3.6, "unit": "L gas/L"}, {"measurement": "Bunsen solubility coefficient in water", "setting": "[1]", "value": 1.0710, "unit": "L gas/L"}, {"measurement": "RNP (Relative Narcotic Potency)", "setting": "[2]", "value": 39}, {"measurement": "lipid solubility", "setting": "25° C. and 36 psi", "value": 7.08, "unit": "mg/mL"}, {"measurement": "lipid solubility", "setting": "25° C. and 181 psi", "value": 23.14, "unit": "mg/mL"}]}
{"smiles": "O=O", "note": "[Example O2, oxygen]", "values": [{"measurement": "Bunsen solubility coefficient in olive oil", "setting": "[1]", "value": 0.11, "unit": "L gas/L"}, {"measurement": "Bunsen solubility coefficient in water", "setting": "[1]", "value": 0.0387, "unit": "L gas/L"}]}
{"smiles": "[He]", "note": "[He, helium]", "values": [{"measurement": "Bunsen solubility coefficient in olive oil", "setting": "[1]", "value": 0.015, "unit": "L gas/L"}, {"measurement": "Bunsen solubility coefficient in water", "setting": "[1]", "value": 0.0078, "unit": "L gas/L"}, {"measurement": "RNP (Relative Narcotic Potency)", "setting": "[2]", "value": 0.045}]}
{"smiles": "[Kr]", "note": "[Kr, krypton]", "values": [{"measurement": "Bunsen solubility coefficient in olive oil", "setting": "[1]", "value": 0.44, "unit": "L gas/L"}, {"measurement": "Bunsen solubility coefficient in water", "setting": "[1]", "value": 0.0856, "unit": "L gas/L"}, {"measurement": "RNP (Relative Narcotic Potency)", "setting": "[2]", "value": 7.1}]}
{"smiles": "[Ne]", "note": "[Ne, neon]", "values": [{"measurement": "Bunsen solubility coefficient in olive oil", "setting": "[1]", "value": 0.052, "unit": "L gas/L"}, {"measurement": "Bunsen solubility coefficient in water", "setting": "[1]", "value": 0.0101, "unit": "L gas/L"}, {"measurement": "RNP (Relative Narcotic Potency)", "setting": "[2]", "value": 0.3}]}
{"smiles": "[Xe]", "note": "[Xe, xenon]", "values": [{"measurement": "Bunsen solubility coefficient in olive oil", "setting": "[1]", "value": 1.9, "unit": "L gas/L"}, {"measurement": "Bunsen solubility coefficient in water", "setting": "[1]", "value": 0.1920, "unit": "L gas/L"}]}
